Laboratory results from article PMC8552062, “Contributions of UDP-Glucuronosyltransferases to Human Hepatic and Intestinal Metabolism of Ticagrelor and Inhibition of UGTs and Cytochrome P450 Enzymes by Ticagrelor and its Glucuronidated Metabolite” (Frontiers in Pharmacology, 2021).
pIC50: −log10 of the molar value.

Assays:
Format in all cases: in vitro ADME
Parameters in all cases: tissue XenoTech LLC; host or cells: pooled human liver microsomes
UGT1A1 = biological target: T1, UGT1A1 (Homo sapiens, UniProt P22309); test: UGT1A1 inhibition in HLM (SN-38 glucuronidation); conditions: for pIC50: UGT1A1, SN-38 glucuronide formation in HLM
T1 sequence (P22309 26-533): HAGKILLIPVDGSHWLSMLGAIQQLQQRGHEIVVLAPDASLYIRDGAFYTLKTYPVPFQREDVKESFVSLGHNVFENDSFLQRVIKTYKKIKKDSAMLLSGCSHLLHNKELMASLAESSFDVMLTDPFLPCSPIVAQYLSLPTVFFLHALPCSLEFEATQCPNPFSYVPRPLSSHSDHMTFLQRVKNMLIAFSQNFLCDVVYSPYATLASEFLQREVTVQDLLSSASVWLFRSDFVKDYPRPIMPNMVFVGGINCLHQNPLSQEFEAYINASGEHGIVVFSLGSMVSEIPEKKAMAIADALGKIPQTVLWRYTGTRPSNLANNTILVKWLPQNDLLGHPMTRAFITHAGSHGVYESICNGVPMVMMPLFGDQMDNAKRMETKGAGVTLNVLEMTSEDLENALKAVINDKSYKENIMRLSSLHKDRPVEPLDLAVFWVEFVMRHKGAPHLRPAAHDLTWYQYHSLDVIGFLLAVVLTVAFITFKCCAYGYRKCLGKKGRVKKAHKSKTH
Procedure: (§1) To assess drug-drug interactions (DDIs) potential caused by ticagrelor and ticagrelor-O-Glu through the inhibition of the major human UGTs enzymes, selective UGT probe substrates were co-incubated with ticagrelor or ticagrelor-O-Glu in HLM. The formation of metabolites, SN-38 glucuronide, chenodeoxycholic acid 24-acyl-β-D-glucuronide, trifluoperazine N-glucuronide, N-Acetyl serotonin glucuronide, mycophenolic acid glucuronide and 3′-azide-3′-deoxythymidine β-D-glucuronide, which could reflect the enzyme activities of UGT1A1, UGT1A3, UGT1A4, UGT1A6, UGT1A9 and UGT2B7, respectively, were quantified using LC-MS/MS. Three different concentrations of ticagrelor or ticagrelor-O-Glu (1, 10 and 100 μM) were added to the incubation system in the presence of selective UGT probe substrates (SN-38, chenodeoxycholic acid, trifluoperazine, N-Acetyl serotonin, mycophenolic acid and 3′-azide-3′-deoxythymidine), respectively. The assays were performed as described above. The control was treated with a vehicle solvent only. A triple determination was performed.
(§2) The percent inhibition relative to the control was calculated to indicate the UGTs or CYPs inhibition. For inhibition exceeding 50% of the control activity, nonlinear regression analysis was used to estimate the IC50 values using the GraphPad Prism 6 (GraphPad Software Inc., CA, United States).

UGT1A3 = biological target: T2, UGT1A3 (Homo sapiens, UniProt P35503); test: UGT1A3 inhibition in HLM (chenodeoxycholic acid glucuronidation); conditions: for pIC50: UGT1A3, chenodeoxycholic acid 24-acyl-β-D-glucuronide formation in HLM
T2 sequence (P35503 29-534): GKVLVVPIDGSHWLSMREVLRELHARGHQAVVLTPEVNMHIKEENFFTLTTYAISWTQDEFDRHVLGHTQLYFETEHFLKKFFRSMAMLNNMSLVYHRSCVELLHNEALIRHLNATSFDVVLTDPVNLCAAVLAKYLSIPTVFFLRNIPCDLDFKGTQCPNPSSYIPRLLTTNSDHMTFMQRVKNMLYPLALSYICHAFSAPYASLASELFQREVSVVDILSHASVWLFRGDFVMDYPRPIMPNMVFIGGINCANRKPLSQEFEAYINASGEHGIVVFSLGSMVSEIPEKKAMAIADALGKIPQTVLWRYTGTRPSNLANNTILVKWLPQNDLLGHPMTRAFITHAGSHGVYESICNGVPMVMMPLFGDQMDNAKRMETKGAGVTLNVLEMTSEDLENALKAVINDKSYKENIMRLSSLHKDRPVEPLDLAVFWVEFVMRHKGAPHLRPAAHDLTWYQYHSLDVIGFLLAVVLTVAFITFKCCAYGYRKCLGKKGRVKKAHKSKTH
Procedure: as §1, §2

UGT1A4 = biological target: T3, UGT1A4 (Homo sapiens, UniProt P22310); test: UGT1A4 inhibition in HLM (trifluoperazine N-glucuronidation); conditions: for inhibitory effect on UGT1A4: HLM, 1, 10 and 100 μM; for pIC50: UGT1A4, trifluoperazine N-glucuronide formation in HLM
T3 sequence (P22310 29-534): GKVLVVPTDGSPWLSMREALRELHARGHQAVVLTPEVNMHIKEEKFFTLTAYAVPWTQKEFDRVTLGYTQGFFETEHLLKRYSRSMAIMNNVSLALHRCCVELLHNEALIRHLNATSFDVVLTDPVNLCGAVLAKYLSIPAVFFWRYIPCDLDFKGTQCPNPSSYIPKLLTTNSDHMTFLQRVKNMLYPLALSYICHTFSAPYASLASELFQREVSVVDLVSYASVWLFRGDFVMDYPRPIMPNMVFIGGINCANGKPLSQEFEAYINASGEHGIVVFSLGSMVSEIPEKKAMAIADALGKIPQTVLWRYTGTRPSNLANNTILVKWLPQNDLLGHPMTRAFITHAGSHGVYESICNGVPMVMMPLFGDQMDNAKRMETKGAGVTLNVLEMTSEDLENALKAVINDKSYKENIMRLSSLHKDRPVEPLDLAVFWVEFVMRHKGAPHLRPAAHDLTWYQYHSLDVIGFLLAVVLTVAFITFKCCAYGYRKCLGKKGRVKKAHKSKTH
Procedure: as §1, §2

UGT2B7 = biological target: T4, UGT2B7 (Homo sapiens, UniProt P16662); test: UGT2B7 inhibition in HLM (3′-azide-3′-deoxythymidine glucuronidation); conditions: for pIC50: UGT2B7, 3′-azide-3′-deoxythymidine β-D-glucuronide formation in HLM; for inhibition at 100 µM: human, human liver microsomes (HLM), probe 3′-azide-3′-deoxythymidine, HLM, 100 μM test compound
T4 sequence (P16662 24-529): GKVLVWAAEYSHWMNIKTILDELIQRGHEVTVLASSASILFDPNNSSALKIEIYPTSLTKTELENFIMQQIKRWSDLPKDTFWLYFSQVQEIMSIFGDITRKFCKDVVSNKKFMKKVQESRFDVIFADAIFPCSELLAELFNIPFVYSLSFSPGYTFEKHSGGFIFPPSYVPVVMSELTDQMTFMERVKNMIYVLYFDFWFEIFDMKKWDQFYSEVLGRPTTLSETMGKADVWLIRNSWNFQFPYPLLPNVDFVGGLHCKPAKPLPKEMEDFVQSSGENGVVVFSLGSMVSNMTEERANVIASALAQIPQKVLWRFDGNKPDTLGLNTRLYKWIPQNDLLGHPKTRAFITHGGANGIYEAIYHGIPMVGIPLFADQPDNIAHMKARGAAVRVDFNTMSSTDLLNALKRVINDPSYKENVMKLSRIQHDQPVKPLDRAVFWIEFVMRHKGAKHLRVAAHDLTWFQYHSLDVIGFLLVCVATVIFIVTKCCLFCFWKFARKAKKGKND
Procedure: as §1, §2

[1] = HLM, concentration up to 100 μM

`CCCSc1nc(N[C@@H]2C[C@H]2c2ccc(F)c(F)c2)c2nnn([C@@H]3C[C@H](OCCO)[C@@H](O)[C@H]3O)c2n1` [Ticagrelor] gave a pIC50 (UGT1A1) of roughly 4.00, an inhibition at 100 µM (UGT1A1; human, human liver microsomes (HLM), probe SN-38, HLM, 100 μM test compound) of 56.8% and a pIC50 (UGT1A3) of less than 4.00. The inhibition at 100 µM (UGT1A3; human, human liver microsomes (HLM), probe chenodeoxycholic acid, HLM, 100 μM test compound) was 24.5%, the “inhibitory effect on UGT1A4” value (UGT1A4) was “No significant inhibitory effect” and the pIC50 (UGT1A4) was less than 4.00. The pIC50 (UGT2B7) was less than 4.00 and the inhibition at 100 µM (UGT2B7) was 39%.

For `CCCSc1nc(N[C@@H]2C[C@H]2c2ccc(F)c(F)c2)c2nnn([C@@H]3C[C@H](OCCO[C@@H]4O[C@H](C(=O)O)[C@@H](O)[C@H](O)[C@H]4O)[C@@H](O)[C@H]3O)c2n1` [Ticagrelor-O-Glu, ticagrelor-O-glucuronide], the “inhibitory effect on UGT1A1” value (UGT1A1; [1]) was “no significant inhibitory effects”, the pIC50 (UGT1A1) was less than 4.00 and the “inhibitory effect on UGT1A3” value (UGT1A3; [1]) was “no significant inhibitory effects”. For the same compound, the pIC50 (UGT1A3) was less than 4.00, the “inhibitory effect on UGT1A4” value (UGT1A4) was “no significant inhibitory effects” and the pIC50 (UGT1A4) was less than 4.00. The pIC50 (UGT2B7) was less than 4.00 and the inhibition at 100 µM (UGT2B7) was 30.7%.
